This is an account of results in US4945162A, “Novel radioactive propyl 2-iodospiroperidol and processes for the preparation thereof” (Sumitomo Chemical Company, Limited, priority 1986, dated 1990).

This assay deals with T1, Dopamine Receptors (Rat Striatal Membranes) (Rattus norvegicus, UniProt P61169).
T1 construct: For ^3 H-SP to Rat Striatal Membranes; from tissue; host or cells: rat striatum (membranes)
Nature of the assay: Inhibition of specific ^3 H-SP binding (dopamine receptor binding affinity) to rat striatal membranes. To be noted: for Ki / IC50: 23° C., 30 minutes, ketanserine present; for IC50: nonspecific binding with (+)butaclamol, triplicate; for Relative Potency: relative to 2-ISP = 100. The method, then:
PISP, 2-ISP and MISP were screened as for the dopamine receptor binding affinity according to the method reported by Hamblin [Biochem. Pharmacol. 33, 877-887 (1984)]. An aliquot of striatal membrane preparations was incubated at 23° C. for 30 minutes with each of the unlabeled competing drugs (PISP, 2-ISP and MISP) in different concentration, ketanserine and ^3 H-spiroperidol (hereinafter referred to as ^3 H-SP). The incubation was terminated by adding ice-cold TEAN buffer followed by a rapid filtration through a Whatman GF/B filter. The bound ^3 H-SP retained on the filter was extracted with ACS II (Amersham) and counted. All incubations were done in triplicate. Nonspecific binding was determined in tubes containing (+)butaclamol. Specific binding was calculated by subtracting the nonspecific binding from the total binding. IC50 values, the concentrations of the tested compounds that cause 50% inhibition of the specific ^3 H-SP binding, were assessed using from six to eight samples at different concentrations, in triplicate.

T1 sequence (P61169 whole entry): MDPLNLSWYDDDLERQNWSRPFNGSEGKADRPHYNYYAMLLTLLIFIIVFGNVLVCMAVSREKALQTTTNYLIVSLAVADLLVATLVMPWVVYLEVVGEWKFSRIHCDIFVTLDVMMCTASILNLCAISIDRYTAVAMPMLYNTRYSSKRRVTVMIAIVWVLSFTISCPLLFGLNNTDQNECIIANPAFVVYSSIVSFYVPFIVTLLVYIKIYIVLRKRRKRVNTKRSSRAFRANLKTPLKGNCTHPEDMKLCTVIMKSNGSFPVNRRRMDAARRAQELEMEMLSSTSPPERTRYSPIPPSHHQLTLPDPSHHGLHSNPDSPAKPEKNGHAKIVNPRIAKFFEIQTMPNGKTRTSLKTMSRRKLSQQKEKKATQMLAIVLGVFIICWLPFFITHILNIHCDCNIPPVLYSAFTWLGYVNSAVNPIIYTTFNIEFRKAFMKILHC

A word on the Ki: it is a measure of affinity in units of concentration, obtained from inhibition or displacement. Low readings indicate higher affinity, high ones lower affinity. Broadly, the IC50 is the point on the concentration scale where inhibition reaches its midpoint. The low end stands for greater potency in that assay, the high end for weaker potency in that assay. With `O=C(CCCN1CCC2(CC1)C(=O)NCN2c1ccccc1)c1ccc(F)cc1I` [2-ISP, 2-iodospiroperidol], the affinity corresponds to a Ki of 1 nM, the half-maximal inhibitory concentration (IC50) was 11 nM and the “Relative Potency” value is recorded as 100.
For the compound `CN1CN(c2ccccc2)C2(CCN(CCCC(=O)c3ccc(F)cc3I)CC2)C1=O` [MISP, methyl 2-iodospiroperidol], the inhibitory constant (Ki) is 5 nM, the IC50 is 55 nM and the “Relative Potency” value stood at 20.
Take `CCCN1CN(c2ccccc2)C2(CCN(CCCC(=O)c3ccc(F)cc3I)CC2)C1=O` [PISP, 8-[4-(4-fluoro-2-iodophenyl)-4-oxobutyl]-3-propyl-1-phenyl-1,3,8-triazaspiro[4.5]decan-4-one]: the Ki was determined as 0.2 nM, the IC50 came to 2.5 nM and the “Relative Potency” value came out at 500.
